{
  "source": "patent US8334262B2",
  "about": "“Cognitive function” (priority 2008, dated 2012)",
  "key": {"Sprague-Dawly male rats": {"tested_on": "Sprague-Dawly male rats", "experiment": "Odour maze learning (olfactory discrimination, 4-arm radial maze)", "format": "in vivo, rat", "details": "i.p. every day, 2 hr before training; day 3 & 6 p<0.05, n=4", "description": "Subjects and apparatus: Age-matched young adult Sprague-Dawly male rats were used. Prior to training they were maintained on a 23.5 hr water-deprivation schedule, with food available ad libitum. Olfactory discrimination training protocol was performed daily on each trained and pseudo-trained rat in a 4-arm radial maze, as previously described (Cohen-Matsliah et al. (2007) Journal of Neuroscience 27, 12584-12589), with commercial odours that are regularly used in the cosmetics and food industry.\n(§1) C-16 was injected i.p. every day, 2 hr before odour maze training. There was 48 hr break between day 3 and 4 without training or injection.\nTraining: Olfactory training consisted of 20 trials per day for each rat as previously described (Cohen-Matsliah et al. (2007)). In short, in each trial the rat had to choose between two odours (positive- and negative-cue) presented simultaneously. Rats designated to the trained group were rewarded upon choosing the positive cue. The criterion for learning was at least 80% positive-cue choices in the last 10 trials of a training day, as was previously used (Cohen-Matsliah et al. (2007)). Training for a new pair began only after training for the […] pair was completed for all rats."}, "PKR [1]": {"target": "T1, PKR (Rattus norvegicus, UniProt Q63184)", "T1 construct": "from tissue; host or cells: rat hippocampal slices (400 µm)", "T1 sequence (Q63184 1-513)": "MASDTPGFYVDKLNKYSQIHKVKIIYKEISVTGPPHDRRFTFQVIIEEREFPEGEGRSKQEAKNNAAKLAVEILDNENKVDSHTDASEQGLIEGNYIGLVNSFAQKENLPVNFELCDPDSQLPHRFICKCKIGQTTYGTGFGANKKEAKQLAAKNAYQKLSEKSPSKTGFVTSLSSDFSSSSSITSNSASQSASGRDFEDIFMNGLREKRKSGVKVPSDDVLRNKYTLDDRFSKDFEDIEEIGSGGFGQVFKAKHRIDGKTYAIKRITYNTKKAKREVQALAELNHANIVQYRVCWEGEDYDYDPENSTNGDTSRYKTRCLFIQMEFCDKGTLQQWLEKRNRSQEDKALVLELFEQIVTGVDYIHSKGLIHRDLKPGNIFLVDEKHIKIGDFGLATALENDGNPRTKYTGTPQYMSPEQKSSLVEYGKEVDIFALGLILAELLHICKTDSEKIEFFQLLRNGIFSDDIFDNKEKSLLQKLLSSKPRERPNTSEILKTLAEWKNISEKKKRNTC", "experiment": "PKR phosphorylation in hippocampal slices from mature rats (Western blot)", "format": "cell-based", "description": "(§2) In order to test biochemically the ability of C-16 to reduce eIF-2α phosphorylation in the mature brain, C-16 was applied to hippocampal slices from mature rats substantially as described by Kaphzan et al. (2007) Journal of Neurochemistry 103, 388-399 but with modifications as set out below.\n(§3) After decapitation the brain was immediately immersed in cold (4° C.) carboxygenated (95% O2, 5% CO2) Artificial Cerebro-Spinal Fluid (ACSF [in mM]: 124 NaCl, 5 KCl, 1.2 MgSO4, 1.2 NaH2PO4, 26 NaHCO3, 10 D-glucose, 2.4 CaCl), and after about 120s both hippocampi were dissected out in a plate filled with cold (4° C.) ACSF on ice. The hippocampi were put on a cooled stand of a Mcllwain tissue chopper TC752 (Campden Instruments Ltd, UK), cut into 400-μm slices, and then put back into a chamber filled with carboxygenated cold (4° C.) ACSF.\n(§4) The slices were transferred to a holding chamber for about 20-30 min, to reach room temperature, and were then transferred to a six-chamber pharmacological instrument, designed to our specifications by Scientific Systems Design Company (Ontario, Canada). All of the slices tested in any one experiment (i.e., in all six chambers) were produced by the same procedure from the same rat. The hippocampal slices were heated to 32° C. and were kept in the chamber for 5 h before any pharmacological intervention. Each chamber contained four slices. The slices were perfused with heated and carboxygenated ACSF (with or without 50 μM C-16 (experimental and control groups respectively)) via a Model MP3 peristaltic pump (Gilson, France), at a rate of ˜2 mL min for 10 mins. The chamber space was carboxygenated and humidified. The chamber was an interface type, and the slices were placed upon a lens paper.\n(§5) The slices were analysed occasionally for their viability using extracellular recordings of fEPSP in the CA1 region. […]\n(§6) The time window of C-16 effect was analysed by Western blot using specific antibodies for phosphorylated and dephosphorylated forms of PKR and eIF-2α. […]"}, "eIF-2α": {"tested_on": "eIF-2α", "experiment": "eIF-2α phosphorylation in hippocampal slices from mature rats (Western blot)", "format": "cell-based, rat", "description": "as §2, §3, §4, §5, §6"}, "rats [2]": {"tested_on": "rats", "experiment": "Novel taste learning, latent inhibition (LI) paradigm", "format": "in vivo, rat", "description": "CTA was performed as described earlier (Rosenblum et al., (1993) Behavioral and Neural Biology 59, 49-56). Saccharin (0.1% w/v, sodium salt) or NaCl (0.3%) were used as the unfamiliar taste in training (i.e. the conditioned stimulus (CS)), and injection of LiCl (0.15 m, 2% body weight, i.p.) as the malaise-inducing agent (unconditioned stimulus (UCS)). At the beginning of the behavioral experiment, the rats were trained for 3 days to obtain their daily water ration once a day for 15 min from two pipettes each containing 10 mL of water. On the conditioning day, they were allowed to drink the saccharin solution instead of water from similar pipettes for 15 min, and 50 min later were injected with LiCl. Under these conditions, 2 days after training the conditioned rats preferred water to saccharin in a multiple choice test situation (three pipettes with 5 mL of saccharin each and three with 5 mL of water each), whereas non-conditioned rats preferred saccharin to water. The behavioural data are presented in terms of aversion index, defined as [mL water/(mL water+mL saccharin)] consumed in the test; 0.5 is a chance level, and the higher the aversion index, the more the rats prefer water to the conditioned taste. […]"}, "rats [3]": {"tested_on": "rats", "experiment": "Weak conditioned taste aversion (CTA)", "format": "in vivo, rat"}, "rats [4]": {"tested_on": "rats", "experiment": "Contextual fear conditioning (freezing)", "format": "in vivo, rat", "details": "i.p. 2 hr before conditioning; tested 24 hours and 10 days later; p<0.05", "source_text": "The entire behavioural procedure took place in the same conditioning chamber containing floor grids and transparent Plexiglas walls. The context of the chamber served as a conditioned stimulus (CS). Rats were placed in the chamber for an approximately two minute adjustment before they were given a foot-shock (0.8 mA for 0.5 sec), which was delivered to the floor bars and served as the unconditioned stimulus (US). The CS-US pairings were given three times. The inter-trial interval was 90-120 seconds throughout. The video images are transferred to a computer (fear-conditioning experiments, control experiment, Dell OptiPlex GXpro) equipped with an analysis program (Image (http://rsb.info.nih.gov/nih-image)) and a macroprogram (P. Schmid, Behavioral Neurobiology Laboratory, Swiss Federal Institute of Technology Zurich). The percentage of changed pixels between two adjacent 1 s images from one of the test boxes was used as a measure of activity. Freezing is commonly identified as cessation of any movement except for respiratory movements. If the percentage of changed pixels between two adjacent 1 s images was <0.05%, this corresponded well to such immobility and the behavior of the rat was scored as “freezing” for the respective second.\nC-16 was injected i.p. 2 hr before contextual fear condition. […]"}, "PKR [5]": {"target": "PKR (Homo sapiens, UniProt P19525)", "sequence (P19525 whole entry)": "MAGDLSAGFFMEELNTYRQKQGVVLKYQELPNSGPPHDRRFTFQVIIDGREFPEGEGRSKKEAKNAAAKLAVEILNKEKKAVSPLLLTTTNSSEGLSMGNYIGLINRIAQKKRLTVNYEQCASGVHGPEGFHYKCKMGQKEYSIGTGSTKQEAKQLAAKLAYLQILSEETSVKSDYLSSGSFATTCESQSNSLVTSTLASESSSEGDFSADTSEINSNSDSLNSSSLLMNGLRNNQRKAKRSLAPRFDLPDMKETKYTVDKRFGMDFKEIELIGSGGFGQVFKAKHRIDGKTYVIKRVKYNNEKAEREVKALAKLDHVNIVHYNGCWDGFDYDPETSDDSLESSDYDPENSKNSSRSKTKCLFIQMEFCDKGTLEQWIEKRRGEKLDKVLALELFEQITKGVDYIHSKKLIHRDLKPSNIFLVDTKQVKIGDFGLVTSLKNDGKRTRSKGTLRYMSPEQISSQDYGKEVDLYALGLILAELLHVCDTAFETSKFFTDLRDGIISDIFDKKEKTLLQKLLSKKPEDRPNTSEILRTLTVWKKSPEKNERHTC", "details": "by inhibiting the ATP-binding site of PKR; cited from earlier work"}, "rats [6]": {"tested_on": "rats", "experiment": "Observation of side effects in rats injected with C-16", "format": "in vivo, rat", "description": "Conditioned taste aversion and novel taste learning were enhanced.\nas §1"}, "[7]": {"details": "50 μM C-16 perfused on hippocampal slices"}, "[8]": {"details": "time window, Western blot, 1 hr after treatment"}},
  "data": [
    {"smiles": "O=C1Nc2ccc3ncsc3c2/C1=C/c1c[nH]cn1", "note": "[Compound C-16]", "values": [
      {"measurement": "odour maze learning (FIG. 11)", "setting": "Sprague-Dawly male rats", "result": "enhances odour maze learning"},
      {"measurement": "PKR phosphorylation in the mature hippocampus (FIG. 2)", "setting": "PKR [1]; [7]", "result": "inhibited"},
      {"measurement": "time of return of PKR phosphorylation to base line following treatment", "setting": "PKR [1]; time window, Western blot", "result": "3 to 4", "unit": "h"},
      {"measurement": "C-16 effect on PKR phosphorylation after 1 hr", "setting": "PKR [1]; [8]", "result": "strong effect"},
      {"measurement": "eIF-2α phosphorylation in the mature hippocampus (FIG. 3)", "setting": "eIF-2α; [7]", "result": "inhibited"},
      {"measurement": "time of return of eIF-2α phosphorylation to base line following treatment", "setting": "eIF-2α; time window, Western blot", "result": "3 to 4", "unit": "h"},
      {"measurement": "C-16 effect on eIF-2α phosphorylation after 1 hr", "setting": "eIF-2α; [8]", "result": "strong effect"},
      {"measurement": "novel taste memory of 0.1% Saccharin (FIG. 8)", "setting": "rats [2]; 30 min after local microinjection into the gustatory cortex, 50 μM, p<0.05", "result": "enhances novel taste memory"},
      {"measurement": "novel taste memory of 0.1% Saccharin (FIG. 7)", "setting": "rats [2]; 2 hr after i.p. application, p<0.01, n=6", "result": "enhances novel taste memory"},
      {"measurement": "weak CTA (0.05M) to 0.3% NaCl (FIG. 10)", "setting": "rats [3]; 30 min after local injection into the gustatory cortex, 50 μM, p<0.05", "result": "enhances weak CTA"},
      {"measurement": "weak Conditioned Taste Aversion (0.05M) to 0.3% NaCl (FIG. 9)", "setting": "rats [3]; 2 hr after i.p. application, n=8", "result": "enhances weak Conditioned Taste Aversion"},
      {"measurement": "contextual fear condition, average freezing between 4th and 7th minutes (FIG. 12)", "setting": "rats [4]", "result": "enhances contextual fear condition"},
      {"measurement": "PKR kinase activity", "setting": "PKR [5]", "result": "able to inhibit PKR's kinase activity"},
      {"measurement": "side effects on repeated i.p. injection", "setting": "rats [6]; i.p. once a day over a period of more than 7 days, odour maze experiment", "result": "without any clear disadvantageous side effect"},
      {"measurement": "other effects in taste learning experiments", "setting": "rats [6]; local and i.p. injection", "result": "no other effect that could be measured"}
    ]}
  ]
}
